Measured values as given in publication PMC3914206.

Columns and labels:
Format in all cases: binding
Parameters in all cases: KINOMEscan: ABL1(F317L)-phosphorylated / KINOMEscan: ABL1(H396P)-nonphosphorylated / KINOMEscan: ABL1(H396P)-phosphorylated / KINOMEscan: ABL1(M351T)-phosphorylated / KINOMEscan: ABL1(T315I)-phosphorylated / KINOMEscan: ABL1-nonphosphorylated / KINOMEscan: ABL1-phosphorylated / KINOMEscan: ACVR2A / KINOMEscan: ACVR2B / KINOMEscan: ADCK3 / KINOMEscan: ADCK4 / KINOMEscan: AKT1 / KINOMEscan: AKT3 / KINOMEscan: ALK / KINOMEscan: ARK5 / KINOMEscan: AURKA / KINOMEscan: AURKC / KINOMEscan: BIKE / KINOMEscan: BMPR1A / KINOMEscan: BMPR1B / KINOMEscan: BMX / KINOMEscan: BRK / KINOMEscan: BRSK1 / KINOMEscan: BRSK2 / KINOMEscan: CAMK1 / KINOMEscan: CAMK1D / KINOMEscan: CAMK1G / KINOMEscan: CAMK2A / KINOMEscan: CAMK2B / KINOMEscan: AAK1 / KINOMEscan: CAMK2D / KINOMEscan: CAMK2G / KINOMEscan: ABL1(F317I)-nonphosphorylated / KINOMEscan: ABL1(F317I)-phosphorylated / KINOMEscan: ABL1(F317L)-nonphosphorylated: unit: % Ctrl
panel of 442 kinases [1] = biological target: T1, panel of 442 kinases (Homo sapiens, UniProt P00519, H396P); conditions: Compound Concentration 10 µM
T1 construct: purchased KINOMEscan
Description: (§1) We assessed the selectivity of members of this scaffold using the KINOMEscan methodology across a near comprehensive panel of 442 kinases [[18,27]].

panel of 442 kinases [2] = biological target: T2, panel of 442 kinases (Homo sapiens, UniProt P57059); conditions: kinase SIK; compound concentration 10 µM
T2 construct: purchased KINOMEscan
Description: as §1

panel of 442 kinases [3] = biological target: T3, panel of 442 kinases (Homo sapiens, UniProt Q92772); conditions: Compound Concentration 10 µM
T3 construct: purchased KINOMEscan
T3 sequence (Q92772 1-493): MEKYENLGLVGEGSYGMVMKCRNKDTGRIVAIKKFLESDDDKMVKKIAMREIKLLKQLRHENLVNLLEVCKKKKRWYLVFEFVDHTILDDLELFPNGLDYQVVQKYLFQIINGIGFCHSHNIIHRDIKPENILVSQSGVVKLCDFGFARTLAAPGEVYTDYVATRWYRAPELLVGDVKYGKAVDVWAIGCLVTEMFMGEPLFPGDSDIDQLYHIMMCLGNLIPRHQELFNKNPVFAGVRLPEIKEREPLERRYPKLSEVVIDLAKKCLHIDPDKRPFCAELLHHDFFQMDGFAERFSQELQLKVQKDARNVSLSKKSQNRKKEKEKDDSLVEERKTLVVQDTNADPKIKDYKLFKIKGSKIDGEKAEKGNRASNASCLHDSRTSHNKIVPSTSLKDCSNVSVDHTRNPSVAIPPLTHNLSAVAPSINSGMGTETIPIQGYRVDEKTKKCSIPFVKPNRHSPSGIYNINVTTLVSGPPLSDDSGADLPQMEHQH
Description: as §1

T2 sequence (P57059 whole entry): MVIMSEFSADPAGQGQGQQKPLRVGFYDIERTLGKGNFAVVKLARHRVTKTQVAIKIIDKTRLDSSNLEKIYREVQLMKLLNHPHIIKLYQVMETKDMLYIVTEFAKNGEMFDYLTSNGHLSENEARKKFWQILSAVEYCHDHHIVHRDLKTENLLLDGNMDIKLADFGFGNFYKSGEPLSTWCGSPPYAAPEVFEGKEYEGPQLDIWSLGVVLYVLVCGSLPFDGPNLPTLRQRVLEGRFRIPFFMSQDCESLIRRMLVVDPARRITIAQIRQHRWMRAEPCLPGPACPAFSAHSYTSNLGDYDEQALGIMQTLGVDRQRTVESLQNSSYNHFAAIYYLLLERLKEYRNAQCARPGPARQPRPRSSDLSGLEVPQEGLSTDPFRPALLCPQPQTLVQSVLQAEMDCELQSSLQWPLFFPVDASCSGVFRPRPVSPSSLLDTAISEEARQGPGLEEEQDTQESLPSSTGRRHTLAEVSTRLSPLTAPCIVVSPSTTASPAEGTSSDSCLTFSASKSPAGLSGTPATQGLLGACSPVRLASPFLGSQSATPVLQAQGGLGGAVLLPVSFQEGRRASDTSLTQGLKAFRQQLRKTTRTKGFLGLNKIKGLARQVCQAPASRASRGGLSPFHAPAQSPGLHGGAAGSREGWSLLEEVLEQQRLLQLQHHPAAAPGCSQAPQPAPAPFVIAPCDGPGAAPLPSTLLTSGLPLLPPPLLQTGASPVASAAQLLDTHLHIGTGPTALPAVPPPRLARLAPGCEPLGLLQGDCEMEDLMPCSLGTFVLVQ

Structure (SMILES)	KINOMEscan: ABL1(H396P)-nonphosphorylated (panel of 442 kinases [1])	KINOMEscan: ABL1(H396P)-phosphorylated (panel of 442 kinases [1])	% Ctrl, SIK (panel of 442 kinases [2]) [% Ctrl]	KINOMEscan: CDKL2 (panel of 442 kinases [3])
COc1cc(C(=O)N2CCC(N3CCN(C)CC3)CC2)ccc1Nc1ncc2c(n1)N(C)c1ccccc1C(=O)N2C [15 (LRRK2-IN-1)]	100	100	77	100
COc1cc(C(=O)N2CCC(N3CCN(C)CC3)CC2)ccc1Nc1ncc2c(n1)N1CCc3cccc(c31)C(=O)N2C [Compound 24]	34	100	90	
COc1cc(C(=O)N2CCC(N3CCN(C)CC3)CC2)ccc1Nc1ncc2c(n1)N(C1CCCC1)c1ccccc1C(=O)N2C [Compound 25, 11-cyclopentyl-2-((2-methoxy-4-(4-(4-methylpiperazin-1-yl)piperidine-1-carbonyl)phenyl)amino)-5-methyl-5H-benzo[e]pyrimido[5,4-b][1,4]diazepin-6(11H)-one]	47	100	98	95
CCOc1cc(C(=O)N2CCC(N3CCN(C)CC3)CC2)ccc1Nc1ncc2c(n1)N(C1CCCC1)c1ccccc1C(=O)N2C [Compound 26]	86	100	100	99
